This is an account of results in patent publication US10399937B2, “Ionizable cationic lipid for RNA delivery” (Arcturus Therapeutics, Inc., priority 2013, dated 2019).

One may read the pKa as the pH at which an ionisable group is half protonated. Lower therefore signals a stronger acid or weaker base.

Data set [1] in a line: pKa of the cationic lipid (Table 1). Format: physicochemical.
The subject of the next data set is Factor VII. Briefly: In vivo mouse Factor VII silencing (siRNA in liposome formulations with the cationic lipid). As to conditions: C57BL6 mice; for ability to knockdown Factor VII in mouse plasma (FIGS. 1 and 2): 0.3 mg/kg, compared to controls (MC3, NC1, ATX-547, ATX-003); for Factor VII knockdown in mouse plasma (FIGS. 3 and 4): second series with MC3, NC1, ATX-547, ATX-004, ATX-006, ATX-010, ATX-001. On the set-up: species or system C57BL/6 mice. The method, then:
Using a liver-directed in vivo screen of the liposome libraries, a series of compounds were tested that facilitate high levels of siRNA mediated gene silencing in hepatocytes, the cells comprising the liver parenchyma. Factor VII, a blood clotting factor, is a suitable target gene for assaying functional siRNA delivery to liver. Because this factor is produced specifically in hepatocytes, gene silencing indicates successful delivery to parenchyma, as opposed to delivery to the cells of the reticulo-endothelial system (e.g., Kupffer cells). Furthermore, Factor VII is a secreted protein that can be readily measured in serum, obviating the need to euthanize animals. Silencing at the mRNA level can be readily determined by measuring levels of protein. This is because the protein's short half-life (2-5 hour). C57BL/6 mice (Charles River Labs) received either saline or siRNA in liposome formulations via tail vein injection at a volume of 0.006 ml/g. At 48 h after administration, animals were anesthetized by isofluorane inhalation and blood was collected into serum separator tubes by retroorbital bleed. Serum levels of Factor VII protein were determined in samples using a chromogenic assay (Biophen FVII, Aniara Corporation) according to manufacturers' protocols. A standard curve was generated using serum collected from saline-treated animals.
Compositions with siRNA directed to […] were formulated with ATX-001, ATX-002, ATX-003, and ATX-547, and comparator samples NC1 and MC3 (Alnylam). These were injected into animals at 0.3 mg/kg and at 1 mg/kg. The siRNA encapsulated by MC3 (0.3 mg/kg), NC1 (0.3 mg/kg), ATX-547 (0.3 mg/kg), ATX-001 (0.3 and 1.0 mg/kg), ATX-002 (0.3 and 1.0 mg/kg), and ATX-003 (0.3 and 1.0 mg/kg) was measured for the ability to knockdown Factor VII in mouse plasma following administration of the siRNA formulation to C57BL6 mice.
The siRNA encapsulated MC3 (0.3 and 1.5 mg/kg), NC1 (0.3 mg/kg), ATX-547 (0.1 and 0.3 mg/kg), ATX-004 (0.3), ATX-006 (0.3 and 1.0 mg/kg), ATX-010 (0.3 mg/kg), and ATX-001 (0.3 and 1.5 mg/kg), was measured for Factor VII knockdown in mouse plasma following administration of the siRNA formulation to C57BL6 mice. […] The knockdown activity of the exemplary compounds is shown for 0.3 mg/kg or at 0.05 mg/kg for ATX-018, ATX-019, and ATX-020 (Table 1).

On to `CCCCCC/C=C\COC(=O)CCCCCCCN(CCCCCCCC(=O)OC/C=C\CCCCCC)C(=O)CSCCN(C)C` [ATX-001], for which the pKa in data set [1] is 8.9. In addition, in the data set with Factor VII, the “ability to knockdown Factor VII in mouse plasma (FIGS. 1 and 2)” value is on record as “most effective”; the “Factor VII knockdown in mouse plasma (FIGS. 3 and 4)” value was “most effective”. For the compound `CCCCCC/C=C\COC(=O)CCCCCCCN(CCCCCCCC(=O)OC/C=C\CCCCCC)C(=O)SCCN(C)C` [ATX-002], the pKa in data set [1] amounted to 8.7. In the data set with Factor VII, the “ability to knockdown Factor VII in mouse plasma (FIGS. 1 and 2)” value is on record as “most effective”. In data set [1], `CCCCCC/C=C\COC(=O)CCCCCCCN(CCCCCCCC(=O)OC/C=C\CCCCCC)C(=O)SCCCN(C)C` [ATX-003] gave a pKa of 9.3.

For the compound `CCCCCC/C=C\COC(=O)CCCCCCCN(CCCCCCCC(=O)OC/C=C\CCCCCC)C(=O)CSCCCN(C)C` [ATX-004], the pKa in data set [1] came out at 9.4. In data set [1], `CCCCCC/C=C\COC(=O)CCCCCCCN(CCCCCCCC(=O)OC/C=C\CCCCCC)C(=O)CSCCN(C)CC` [ATX-005] returned a pKa of 9.

`CCCCCC/C=C\COC(=O)CCCCCCCN(CCCCCCCC(=O)OC/C=C\CCCCCC)C(=O)CSCCN(CC)CC` [ATX-006] showed a pKa in data set [1] of 9.8. Compound `CCCCCC/C=C\COC(=O)CCCCCCCN(CCCCCCCC(=O)OC/C=C\CCCCCC)C(=O)CSCCCN(C)CC` [ATX-007] displayed a pKa in data set [1] of 9.5. The compound `CCCCCC/C=C\COC(=O)CCCCCCCN(CCCCCCCC(=O)OC/C=C\CCCCCC)C(=O)CSCCCN(CC)CC` [ATX-008] displayed a pKa in data set [1] of 10.3. In data set [1], `CCCCCC/C=C\COC(=O)CCCCCCCN(CCCCCCCC(=O)OC/C=C\CCCCCC)C(=O)SCCN(C)CC` [ATX-009] registered a pKa of 8.8. `CCCCCC/C=C\COC(=O)CCCCCCCN(CCCCCCCC(=O)OC/C=C\CCCCCC)C(=O)SCCN(CC)CC` [ATX-010]: the pKa in data set [1] turned out to be 9.6. In the data set on Factor VII, the “Factor VII knockdown in mouse plasma (FIGS. 3 and 4)” value is “most effective”. As for `CCCCCC/C=C\COC(=O)CCCCCCCN(CCCCCCCC(=O)OC/C=C\CCCCCC)C(=O)SCCCN(C)CC` [ATX-011], in data set [1], the pKa is 9.4. Turning to `CCCCCC/C=C\COC(=O)CCCCCCCN(CCCCCCCC(=O)OC/C=C\CCCCCC)C(=O)SCCCN(CC)CC` [ATX-012], in data set [1], the pKa came to 10.2.
